Laboratory results: article PMC9786284, “Synthesis and Antiproliferative Effect of Halogenated Coumarin Derivatives” (Molecules, 2022)
Where two headings read alike, the source gives them in different places.

Legend:
Format in all cases: cell-based
[1] = test system: TPC-1 thyroid cancer cell line; experiment: MTT cell viability assay
Description: (§1) The cytotoxic effect of coumarins 2a–k was tested on several cancer and normal cell lines: lung cancer cell line (SK-MES-1), thyroid cancer cell lines (K-1; B-CPAP ant TPC-1), lung fibroblast (MRC-5) and thyroid normal cell line (Nthy-ori-3-1) by MTT (3-[4,5-dimethylthiazol-2-yl]-2,5 diphenyltetrazolium bromide) assay.
(§2) The papillary thyroid carcinoma (PTC)-derived cell lines (TPC-1 and B-CPAP) were kindly provided by Dr. Fusco (Medical School, University Federico II of Naples, Naples, Italy). K-1 PTC-derived cell line and non-tumorigenic thyroid Nthy-ori-3-1 cell line were purchased from Health Protection Agency Culture Collections. The PTC-derived cell lines were maintained in DMEM/F12 (Gibco-BRL. Life Technologies, Milan, Italy)] supplemented with 10% fetal bovine serum (Gibco-BRL) at 37 °C in humidified 5% CO2. SK-MES-1 and MRC-5 were purchased from American Type Culture Collection (ATCC) and were maintained in Mem-E medium, supplemented with 10% fetal bovine serum, 100 units/mL penicillin G, and 100 μg/mL streptomycin (Gibco-BRL) at 37 °C in humidified 5% CO2.
(§3) The effect of test compounds on the viability of cells was detected by MTT assay. The thyroid cells (7.5 × 10^3 cells/mL), SK-MES-1, and MRC-5 (8 × 10^4 cells/mL) were seeded into a 96-well plate and allowed to adhere for 16 h to culture plates before the addition of the compounds.
(§4) Then, compounds were added at different concentrations (0.8–100 μM), and cells were further incubated for 24 h. Cells with no treatment were used as a negative control. After incubation, cells were treated with MTT solution for 3 h at 37 °C. Then, the MTT solution was removed, and 150 µL of DMSO was added to the wells. The absorbances were measured at 570 nm using a TECAN microplate reader (Infinite 200, Tecan, Salzburg, Austria). Viability data were reported as % of control (untreated cells) for each cell line.

[2] = test system: K-1 thyroid cancer cell line; experiment: MTT cell viability assay
Description: as §1, §2, §3, §4

[3] = test system: SK-MES-1 lung cancer cell line; experiment: MTT cell viability assay
Description: as §1, §2, §3, §4

[4] = MTT cell viability assay; settings: human, MTT, 24 h, concentration required to inhibit cell proliferation by 50%, mean ± SD
Description: as §1, §2, §3, §4

[5] = test system: B-CPAP thyroid cancer cell line; experiment: MTT cell viability assay
Description: as §1, §2, §3, §4

[6] = test system: MRC-5 lung fibroblast; experiment: MTT cell viability assay
Description: as §1, §2, §3, §4

[7] = test system: Nthy-ori-3-1 thyroid normal cell line; experiment: MTT cell viability assay
Description: as §1, §2, §3, §4

[8] = Homo sapiens, TPC1, TPC-1, MTT, 24 h, concentration required to inhibit cell proliferation by 50%, mean ± SD, read-out: CC50
[9] = K-1, MTT, 24 h, concentration required to inhibit cell proliferation by 50%, mean ± SD, read-out: CC50
[10] = Homo sapiens, SK-MES-1, MTT, 24 h, concentration required to inhibit cell proliferation by 50%, mean ± SD, read-out: CC50
[11] = Nthy-ori-3-1 normal thyroid cells, Nthy-ori-3-1
[12] = Homo sapiens, BCPAP, B-CPAP, MTT, 24 h, concentration required to inhibit cell proliferation by 50%, mean ± SD, read-out: CC50

Compound	CC50 [1, 8] [µM]	CC50 [2, 9] [µM]	CC50 [3, 10] [µM]	CC50 at 24 h ([4]; MRC-5 lung fibroblasts, MRC-5) [µM]	CC50 at 24 h [4, 11] [µM]	CC50 [5, 12] [µM]	CC50 [6] [µM]	CC50 [1] [µM]	CC50 [2] [µM]	CC50 [3] [µM]	CC50 [7] [µM]	CC50 [5] [µM]
CCOC(=O)c1cc2cc(Br)ccc2oc1=O [2d, Ethyl 6-bromo-2-oxo-2H-chromene-3-carboxylate]	> 100	> 100	> 100	> 100	> 100	> 100	–	–	–	–	–	–
Ethyl 6-fluoro-2-oxo-2H-chromene-3-carboxylate [2b]	–	–	–	–	–	–	> 100	> 100	> 100	> 100	> 100	> 100
N#Cc1cc2cc(F)ccc2oc1=O [2a, 6-Fluoro-2-oxo-2H-chromene-3-carbonitrile]	> 100	> 100	> 100	> 100	> 100	> 100	–	–	–	–	–	–
N#Cc1cc2cc(Br)ccc2oc1=O [2e, 6-Bromo-2-oxo-2H-chromene-3-carbonitrile]	> 100	> 100	> 100	> 100	> 100	> 100	–	–	–	–	–	–
N#Cc1cc2cc(Cl)ccc2oc1=O [2c, 6-Chloro-2-oxo-2H-chromene-3-carbonitrile]	> 100	> 100	> 100	> 100	> 100	> 100	–	–	–	–	–	–
O=C(O)c1cc2cc(I)cc(I)c2oc1=O [2j, 6,8-diiodo-2-oxo-2H-chromene-3-carboxylic Acid]	> 100	> 100	> 100	> 100	> 100	> 100	–	–	–	–	–	–
CS(=O)(=O)c1cc2cc(Br)ccc2oc1=O [2f, 6-Bromo-3-(methylsulfonyl)-2H-chromen-2-one]	> 100	> 100	> 100	> 100	> 100	> 100	–	–	–	–	–	–
CCOC(=O)c1cc2cc(Br)cc(Br)c2oc1=O [2g, Ethyl 6,8-dibromo-2-oxo-2H-chromene-3-carboxylate]	> 100	> 100	> 100	> 100	> 100	> 100	–	–	–	–	–	–
CC[C@@]1(O)C(=O)OCc2c1cc1n(c2=O)Cc2cc3ccccc3nc2-1 [Camptothecin, reference compound]	0.01 ± 0.02	–	0.017 ± 0.003	0.1 ± 0.03	0.01 ± 0.02	0.03	–	–	–	–	–	–
CCOC(=O)c1cc2cc(I)cc(I)c2oc1=O [2i, Ethyl 6,8-diiodo-2-oxo-2H-chromene-3-carboxylate]	> 100	> 100	> 100	> 100	> 100	> 100	–	–	–	–	–	–
